Where two headings read alike, the source gives them in different places.
Columns and labels:
[1] = test system: MHCC97L liver cancer cell strains; test: Tetrazolium salt reduction method (MTT) on human liver cancer cell strain MHCC97L; format: cell-based
Protocol: 3. human liver cancer cell strains MHCC97L model discrimination
(§1) Tested methods: Tetrazolium salt reduction method (MTT)
(1) Inoculating cells: Inoculating cells: A uniform cell suspension was prepared with culture solution containing fetal calf serum (10%). The suspension was implanted into a 96-well cell culture disc by 1000-10000 cells/200 μL per well.
(§2) (2) Culturing cells: The cells were cultured for 3-5 days according to known methods in the art (culturing time depending on experiment objective and requirement).
(§3) (3) Colour response: The cells were cultured for 3-5 days, 20 μl of MTT solution (5 mg/mL, PBS <pH=7.4>) was added in each well, incubated for 4 h. Culture was terminated and the culture suspension was carefully sucked out. As for suspension cells, they need be centrifuged before suspension solution in wells was sucked out. 150 μL of DMSO was added in each well, vibrated for 10 min. The crystal was fully dissolved.
(§4) (4) Colorimetry: Light absorbance values in each well were measured by ELISA at 490 nm and the results were recorded. The cell growth curve was drawn with time as the abscissa and absorbance values as vertical coordinates.
Model principle: Dehydrogenase related to NADP exists in mitochondria of living cell. Yellow MTT is reduced to insoluble blue-purple Formanzan. Dehydrogenase is disappeared in dead cell and MTT can not be reduced. According to reduction extent, action effect of sample on tumor cell is defected.

[2] = test system: PLC/PRF/5 liver cancer cell strains; test: Tetrazolium salt reduction method (MTT) on human liver cancer cell strain PLC/PRF/5; format: cell-based
Protocol: 2. human liver cancer cell strains PLC/PRF/5 model discrimination
as §1
(1) Inoculating cells: A uniform cell suspension was prepared with culture solution containing fetal calf serum (10%). The suspension was implanted into a 96-well cell culture disc by 1000-10000 cells/200 μL per well.
as §2, §3, §4
Model principle: Dehydrogenase related to NADP exists in mitochondria of living cell. Yellow MIT is reduced to insoluble blue-purple Formanzan. Dehydrogenase is disappeared in dead cell and MIT can not be reduced. According to reduction extent, action effect of sample on tumor cell is defected.

[3] = MTT, cells cultured 3-5 days, read-out: MHCC97L IC50
[4] = MTT, cells cultured 3-5 days, read-out: PLC/PRF/5 IC50
[5] = Homo sapiens, MHCC97L, MTT, cells cultured 3-5 days, read-out: MHCC97L IC50
[6] = Homo sapiens, PLC-PRF-5, MTT, cells cultured 3-5 days, read-out: PLC/PRF/5 IC50
[7] = Homo sapiens, MHCC97L, read-out: MHCC97L IC50 (μM)
[8] = Homo sapiens, PLC-PRF-5, read-out: PLC/PRF/5 IC50 (μM)

IC50 [1, 3] [µM]	IC50 [2, 4] [µM]	IC50 [1, 5] [µM]	IC50 [2, 6] [µM]	SMILES	further results
11.3	10.8			COc1cc(NS(=O)(=O)c2ccccc2[N+](=O)[O-])c2cc1Oc1ccc(cc1)C[C@H]1c3cc(c(OC)cc3CCN1C)Oc1c(OC)c(OC)cc3c1[C@H](C2)N(C)CC3 [Compound H-21]	
34.4		34.4	26.9	CNC(=O)c1cc(Oc2ccc(NC(=O)Nc3ccc(Cl)c(C(F)(F)F)c3)cc2)ccn1 [Sorafenib, reference compound]	
				COc1ccc2cc1Oc1ccc(cc1)C[C@H]1c3cc(c(OC)cc3CCN1C)Oc1c(OCc3ccccc3)c(OC)cc3c1[C@H](C2)[N+](C)(Cc1ccccc1)CC3 (some centres unmarked) [Compound H-31]	IC50 [1, 7]: 12.7 µM; IC50 [2, 8]: 12.7 µM
		9.6	3.4	COc1ccc2cc1Oc1ccc(cc1)C[C@H]1c3cc(c(OC)cc3CCN1C)Oc1c(ON=O)c(OC)cc3c1[C@H](C2)N(C)CC3 [Compound H-42]	
		12.1	11.9	COc1cc2c3cc1Oc1c(OC)c(OC)c(Br)c4c1[C@H](Cc1c([N+](=O)[O-])cc(OC)c(c1Br)Oc1ccc(cc1)C[C@@H]3N(C)CC2)N(C)CC4 [Compound H-36]	
		1.26	8.9	COc1cc([N+](=O)[O-])c2cc1Oc1ccc(cc1)C[C@H]1c3cc(c(OC)cc3CCN1C)Oc1c(OCc3ccccc3)c(OC)cc3c1[C@H](C2)N(C)CC3 [Compound H-32]	
				COc1cc2c3cc1Oc1c(OC(C)=O)c(OC)c(Cl)c4c1[C@H](Cc1c(Cl)cc(OC)c(c1Cl)Oc1ccc(cc1)C[C@@H]3N(C)CC2)N(C)CC4 [Compound H-51]	IC50 [1, 7]: 10.4 µM; IC50 [2, 8]: 1.4 µM
		8.6	9	COc1cc2c3cc1Oc1c(OC)c(OC)c(Br)c4c1[C@H](Cc1c(S(=O)(=O)O)cc(OC)c(c1Br)Oc1ccc(cc1)C[C@@H]3N(C)CC2)N(C)CC4 [Compound H-41]	
		6.6	7.8	COc1cc(N)c2cc1Oc1ccc(cc1)C[C@H]1c3cc(c(OC)cc3CCN1C)Oc1c(OC(=O)c3ccccc3)c(OC)cc3c1[C@H](C2)N(C)CC3 [Compound H-34]	
		0.4	3.2	COc1cc(Cl)c2cc1Oc1ccc(cc1)C[C@H]1c3cc(c(OC)cc3CCN1C)Oc1c(OC)c(OC)c(Br)c3c1[C@H](C2)N(C)CC3 [Compound H-54]	
				COc1cc([N+](=O)[O-])c2cc1Oc1ccc(cc1)C[C@H]1c3cc(c(OC)cc3CCN1C)Oc1c(OC)c(OC)cc3c1[C@H](C2)N(C)CC3 [Compound H-27]	IC50 [1, 7]: 1.9 µM; IC50 [2, 8]: 2.9 µM
		10.7	10.2	COc1cc(S(=O)(=O)Nc2ccccc2)c2cc1Oc1ccc(cc1)C[C@H]1c3cc(c(OC)cc3CCN1C)Oc1c(OC)c(OC)cc3c1[C@H](C2)N(C)CC3 [Compound H-38]	
				COc1cc(NC(C)=O)c2cc1Oc1ccc(cc1)C[C@H]1c3cc(c(OC)cc3CCN1C)Oc1c(OC)c(OC)cc3c1[C@H](C2)N(C)CC3 [Compound H-01]	IC50 [1, 7]: 12.9 µM; IC50 [2, 8]: 12.3 µM
9.1	10.7			COc1cc(NS(=O)(=O)c2ccccc2)c2cc1Oc1ccc(cc1)C[C@H]1c3cc(c(OC)cc3CCN1C)Oc1c(OC)c(OC)cc3c1[C@H](C2)N(C)CC3 [Compound H-18]	
		9.8	4.6	COc1cc(NS(C)(=O)=O)c2cc1Oc1ccc(cc1)C[C@H]1c3cc(c(OC)cc3CCN1C)Oc1c(OC)c(OC)cc3c1[C@H](C2)N(C)CC3 [Compound H-17]	
7.9	12.7			COC(=O)C(=O)Nc1cc(OC)c2cc1C[C@H]1c3c(cc(OC)c(OC)c3Oc3cc4c(cc3OC)CCN(C)[C@H]4Cc3ccc(cc3)O2)CCN1C [Compound H-14]	

IC50 [1, 3] [µM]	IC50 [2, 4] [µM]	IC50 [1, 5] [µM]	IC50 [2, 6] [µM]	SMILES	further results
				COc1ccc2cc1Oc1ccc(cc1)C[C@H]1c3cc(c(OC)cc3CCN1C)Oc1c(OC(C)=O)c(OC)c(Br)c3c1[C@H](C2)N(C)CC3 [Compound H-48]	IC50 [1, 7]: 4.1 µM; IC50 [2, 8]: 0.5 µM
12.2	5.4			COc1ccc(C(=O)Nc2cc(OC)c3cc2C[C@H]2c4c(cc(OC)c(OC)c4Oc4cc5c(cc4OC)CCN(C)[C@H]5Cc4ccc(cc4)O3)CCN2C)cc1 [Compound H-04]	
		7.3	7.6	C=C(OC)/C(OC)=C1/Oc2cc3c(cc2OC)CCN(C)[C@H]3Cc2ccc(cc2)Oc2cc(c(S(=O)(=O)O)cc2OC)C[C@H]2C1=CCCN2C [Compound H-37]	
8.4	10.1			COc1cc(NC(=O)COC(C)=O)c2cc1Oc1ccc(cc1)C[C@H]1c3cc(c(OC)cc3CCN1C)Oc1c(OC)c(OC)cc3c1[C@H](C2)N(C)CC3 [Compound H-13]	
1.4	4.6			COc1cc(NC(=O)OCC(C)C)c2cc1Oc1ccc(cc1)C[C@H]1c3cc(c(OC)cc3CCN1C)Oc1c(OC)c(OC)cc3c1[C@H](C2)N(C)CC3 [Compound H-08]	
				COc1cc(Br)c2cc1Oc1ccc(cc1)C[C@H]1c3cc(c(OC)cc3CCN1C)Oc1c(OC(C)=O)c(OC)c(Br)c3c1[C@H](C2)N(C)CC3 [Compound H-49]	IC50 [1, 7]: 8.7 µM; IC50 [2, 8]: 2.4 µM
		1.1	3.2	COc1cc(S(=O)(=O)O)c2cc1Oc1ccc(cc1)C[C@H]1c3cc(c(OC)cc3CCN1C)Oc1c(O)c(OC)cc3c1[C@H](C2)N(C)CC3 [Compound H-53]	
		9.9	8.1	COc1cc(S(=O)(=O)OC)c2cc1Oc1ccc(cc1)C[C@H]1c3cc(c(OC)cc3CCN1C)Oc1c(OC)c(OC)cc3c1[C@H](C2)N(C)CC3 [Compound H-39]	
		8.9	11.7	COc1cc(S(=O)(=O)O)c2cc1Oc1ccc(cc1)C[C@H]1c3cc(c(OC)cc3CCN1C)Oc1c(OC(=O)c3ccccc3)c(OC)cc3c1[C@H](C2)N(C)CC3 [Compound H-45]	
		8.8	8.1	COc1cc([N+](=O)[O-])c2cc1Oc1ccc(cc1)C[C@H]1c3cc(c(OC)cc3CCN1C)Oc1c(OC)c(OC)c(Cl)c3c1[C@H](C2)N(C)CC3 [Compound H-43]	
		9.1	10.1	COc1cc(NC(=O)CO)c2cc1Oc1ccc(cc1)C[C@H]1c3cc(c(OC)cc3CCN1C)Oc1c(OC)c(OC)cc3c1[C@H](C2)N(C)CC3 [Compound H-12]	
5.6	2.1			COc1cc(NS(=O)(=O)c2ccc(Cl)cc2Cl)c2cc1Oc1ccc(cc1)C[C@H]1c3cc(c(OC)cc3CCN1C)Oc1c(OC)c(OC)cc3c1[C@H](C2)N(C)CC3 [Compound H-22]	
		10.7		COc1cc(N=O)c2cc1Oc1ccc(cc1)C[C@H]1c3cc(c(OC)cc3CCN1C)Oc1c(OC)c(OC)cc3c1[C@H](C2)N(C)CC3 [Compound H-30]	
9.7	6.7			COc1cc([N+](=O)[O-])c2cc1Oc1ccc(cc1)C[C@H]1c3cc(c(OC)cc3CCN1C)Oc1c(OC(=O)c3ccccc3)c(OC)cc3c1[C@H](C2)N(C)CC3 [Compound H-52]	
			9.3	COc1cc([N+](=O)[O-])c2cc1Oc1ccc(cc1)C[C@H]1c3cc(c(OC)cc3CCN1C)Oc1c(OC(=O)c3ccccc3)c(OC)cc3c1[C@H](C2)N(C)CC3 [Compound H-33]	
		10.1	14.8	COc1cc(N)c2cc1Oc1ccc(cc1)C[C@H]1c3cc(c(OC)cc3CCN1C)Oc1c(OC)c(OC)cc3c1[C@H](C2)N(C)CC3 [Compound H-29]	

SMILES	IC50 [1, 3] [µM]	IC50 [2, 4] [µM]	IC50 [1, 5] [µM]	IC50 [2, 6] [µM]	further results
COc1cc2c3cc1Oc1c(OC)c(OC)c(Cl)c4c1[C@H](Cc1c([N+](=O)[O-])cc(OC)c(c1Cl)Oc1ccc(cc1)C[C@@H]3N(C)CC2)N(C)CC4 [Compound H-44]	9.4	4.1			
COc1cc(Cl)c2cc1Oc1ccc(cc1)C[C@H]1c3cc(c(OC)cc3CCN1C)Oc1c(OC(C)=O)c(OC)c(Cl)c3c1[C@H](C2)N(C)CC3 [Compound H-50]	3.3	9.8			
COc1cc(S(=O)(=O)O)c2cc1Oc1ccc(cc1)C[C@H]1c3cc(c(OC)cc3CCN1C)Oc1c(OC)c(OC)c(Br)c3c1[C@H](C2)N(C)CC3 [Compound H-40]	9.2	10.5			
COc1cc([N+](=O)[O-])c2cc1Oc1ccc(cc1)C[C@H]1c3cc(c(OC)cc3CCN1C)Oc1c(OC)c(OC)c([N+](=O)[O-])c3c1[C@H](C2)N(C)CC3 [Compound H-28]			8.1	20.1	

— patent publication US10189812B2, “Bi-benzyl isoquinoline derivative, preparation method and use thereof in hepatopathy treatment and prevention” (THE KEY LABORATORY OF CHEMISTRY FOR NATURAL PRODUCTS OF …, priority 2014, dated 2019)
